Results as given in patent publication US20140112882A1, “Methods to treat pancreatic inflammation and associated lung injury through regulation of pancreatic interleukin-22 expression” (The Board of Trustees of the Leland Stanford Junior …, priority 2012, published 2014).

How the values were obtained:
pancreatic IL-22 = assay: Pancreatic IL-22 production in mice (flow cytometry of pancreatic leukocytes, ELISA); format: in vivo, Balb/c mice; conditions: day 3, vs vehicle
Description: (§1) Mice were given PBS or recombinant IL-22 (200 ng/mouse, 1 ng/μl, Miltenyi Biotech) intra-peritoneally at 24 h after onset of CDE-diet-induced acute pancreatitis. For experiments involving anti-IL-22 mAb, mice were treated with 1 μg of either anti-IL-22 or isotype control mAb (R&D Systems) at indicated times. CH-223191 (100 μg/mouse, 0.5 μg/μl, Sigma-Aldrich) was dissolved in DMSO and Biliverdin hydrochloride (35 mg/kg, Frontier Scientific) in 20 mM NaOH adjusted to pH of 7.0. CH-223191, Biliverdin hydrochloride, or vehicle control were used to treat normal mice or mice undergoing AP at indicated times.
Mouse pancreata were isolated and frozen immediately in liquid nitrogen. Total tissue and primary pancreatic acinar cells, isolated as described below, were homogenized in RIPA buffer containing protein inhibitors and analyzed by western blot as described previously (Nakamichi et al., 2005; Xue et al., 2010). […] Supernatant from pancreas homogenate was analyzed using ELISA kit for mouse IL-22 (Biolegend). […]
For surface staining, cells were stained with the following antibodies (Biolegend): AF700 or FITC CD45.2, PE/Cy7-CD3, PE/Cy7-CD19, APC/Cy7-CD4, FITC-CD90, Percp/Cy5.5-CD11b, APC-Sca-1, PB-CD11c, APC/Cy7-NK1.1 and APC-NKp46. […] Flow cytometry data collection was performed on Fortessa LSRII (BD Biosciences) and analyzed using FlowJo software (Tree Star, Inc.).

[1] = test system: CDE-induced acute pancreatitis; assay: CDE-diet-induced acute pancreatitis model; format: in vivo, Balb/c mice
Description: (§2) Mice including Balb/c, C57B6/J and AhR^d were purchased from Jackson laboratory and housed under pathogen-free conditions. All animal experiments were approved by Stanford University institutional animal care and use committees. Acute pancreatitis models. For caerulein-induced pancreatitis, age and sex matched mice were fasted for 12-16 hours. Mice then received 7 hourly intra-peritoneal injections of saline (control) or 50 μg/kg caerulein in saline and followed up to 12 h or indicated times. For the choline-deficient diet supplemented with DL-ethionine (CDE-diet) model of pancreatitis, young female mice (16-20 g) were fasted then fed a choline-deficient diet (Harlan Teklad) supplemented with 0.5% DL-ethionine (Sigma-Aldrich) or normal chow (control group) (Habtezion et al. (2011), Nakamichi et al., 2005).
as §1
(§3) Mice were euthanized by CO2 inhalation. Pancreata and other tissues were rapidly removed. Pancreas and lung pieces were immediately fixed in 10% formalin and embedded in paraffin. Fixed tissues were sectioned and stained with hematoxylin and eosin (H&E; performed by Histo-Tec Laboratory). The severity of pancreatitis and lung injury were scored blindly as described previously (Habtezion et al. (2011), Nakamichi et al., 2005). Other pancreas pieces were frozen in Tissue-Tek OCT compound and sectioned for fluorescence staining Immunofluorescence staining for p-STAT3 (Cell Signaling) and DAPI (nuclei) was performed according to manufacturer's guidelines. TUNEL assay was performed according to the manufacturer's instructions (ApopTag® Red In Situ Apoptosis Detection Kit, Millipore).
Blood was collected by intracardiac puncture, and serum was isolated for subsequent lipase level determination by diagnostic laboratory at Stanford University. Lung tissues were collected and MPO assay performed according to manufacture's guidelines (Biovision).
(§4) Mouse pancreata were isolated and frozen immediately in liquid nitrogen. Total tissue and primary pancreatic acinar cells, isolated as described below, were homogenized in RIPA buffer containing protein inhibitors and analyzed by western blot as described previously (Nakamichi et al., 2005; Xue et al., 2010). IL-22RA1 and cleaved caspase-3 antibodies were purchased from Abcam and Cell Signaling, respectively. Supernatant from pancreas homogenate was analyzed using ELISA kit for mouse IL-22 (Biolegend).

pancreatic acinar cells = assay: pSTAT3 induction in isolated primary pancreatic acinar cells (western blot); format: cell-based, Balb/c mice; conditions: 10 ng/ml for 0-30 min; 0-100 ng/ml for 15 min
Description: as §4
(§5) Mice were sacrificed and pancreata removed carefully by trimming fat and mesentery. Dispersed pancreatic acinar cells were isolated using a collagenase digestion method described previously (Menozzi et al. 1990). Isolated primary pancreatic acinar cells were treated in vitro with either rIL-22 or vehicle control (PBS) for up to 4 hours following isolation. Pancreatic leukocytes were prepared with minor modifications of the method developed by Hawkins (Hawkins et al., 1996). Briefly, 3-4 pancreata were pooled together and minced with scissors, then washed twice with buffer A (HBSS+10% FCS). The tissue was resuspended in buffer A containing 2 mg/ml collagenase type IV (Sigma-Aldrich) and incubated in a shaker at 37° C. for 15 min. […]

[2] = test system: caerulein-induced acute pancreatitis; assay: Caerulein-induced acute pancreatitis in AhR non-responsive (AhR^d) mice; format: in vivo, AhR^d mice (C57BL/6 background); conditions: rIL-22 single dose 200 ng/mouse, vs vehicle control
Description: as §2
as §3, with “Fixed tissues were sectioned and stained with hematoxylin and eosin (H&E; performed by Histo-Tec Laboratory).” left out, “TUNEL assay was performed according to the manufacturer's instructions (ApopTag® Red In Situ Apoptosis Detection Kit, Millipore).” left out

[3] = test system: RegIII genes, SAA3, β-defensin2, IL-22RA1 in pancreas; assay: Quantitative PCR of pancreas mRNA 24 h after rIL-22; format: in vivo, Balb/c mice; conditions: 200 ng/mouse i.p., vs PBS
Description: Pancreatic tissue was lysed with Trizol reagent (Invitrogen) for total RNA preparation according to manufacturer's instructions. Briefly, cDNA was generated using GoScript reverse transcription system (Promega). Quantitative PCR was performed with an ABI-7900 Sequence Detection System (Applied Biosystems) using designed specific TaqMan probes and primers as follows: RegIIIβ (Forward, 5′-[…]-3′; Reverse, 5′-[…]-3′; Probe, 5′-[…]-3′); RegIIIγ (Forward, 5′-[…]-3′; Reverse, 5′-TGGGTTCATAGCCCAGTGT-3′; Probe, 5′-[…]-3′); β-defensin2 (Forward, 5′-[…]-3′; Reverse, 5′-[…]-3′; Probe, 5′-[…]-3′); SAA3 (Forward, 5′-[…]-3′; Reverse, 5′-[…]-3′; Probe, 5′-[…]-3′); IL-22RA1 (Forward, 5′-[…]-3′; Reverse, 5′-[…]-3′; Probe, 5′-[…]-3′).

STAT3 = STAT3 phosphorylation in tissues after systemic rIL-22 (western blot, immunofluorescence); format: in vivo, Balb/c mice; conditions: rIL-22 200 ng/mouse systemically; 1 h; compared to other tissues
Description: as §1
Mice were euthanized by CO2 inhalation. Pancreata and other tissues were rapidly removed. […] The severity of pancreatitis and lung injury were scored blindly as described previously (Habtezion et al. (2011), Nakamichi et al., 2005). Other pancreas pieces were frozen in Tissue-Tek OCT compound and sectioned for fluorescence staining Immunofluorescence staining for p-STAT3 (Cell Signaling) and DAPI (nuclei) was performed according to manufacturer's guidelines. […]
Mouse pancreata were isolated and frozen immediately in liquid nitrogen. Total tissue and primary pancreatic acinar cells, isolated as described below, were homogenized in RIPA buffer containing protein inhibitors and analyzed by western blot as described previously (Nakamichi et al., 2005; Xue et al., 2010). […]

[4] = test system: primary pancreatic acinar cells; assay: Spontaneous apoptosis of primary pancreatic acinar cells in vitro (cleaved caspase-3 western blot); format: cell-based, mice; conditions: rIL-22 for 2 h or 4 h in vitro; vs PBS
Description: as §4, §5

[5] = 200 ng/mouse 24 h after CDE feeding, 60 h, vs PBS

Cc1ccccc1N=Nc1ccc(NC(=O)c2ccnn2C)c(C)c1 [CH-223191, 2-methyl-2H-pyrazole-3-carboxylic acid (2-methyl-4-o tolylazo-phenyl)-amide, reference compound]
Frequency of IL-22-expressing leukocytes in the pancreas (pancreatic IL-22; 100 μg/mouse on two consecutive days, flow cytometry and ELISA): markedly decreased | Mortality ([1]; pretreated before CDE feeding, by day 3, relative to control treated mice): increased mortality | Severity of acute pancreatitis (serum lipase, H&E, histologic score) ([1]; pretreated daily for two days before CDE feeding, analyzed at day 2, vs vehicle): considerably more severe acute pancreatitis

C=CC1=C(C)/C(=C/C2=NC(=C\c3[nH]c(/C=C4\NC(=O)C(C)=C4C=C)c(C)c3CCC(=O)O)/C(CCC(=O)O)=C2C)NC1=O [biliverdin, reference compound]
Pancreatic IL-22 (pancreatic IL-22; biliverdin 35 mg/kg on day 1 and 2, ELISA and flow cytometry): significant increase | Protection against acute pancreatitis (serum lipase, histologic assessment) ([1]; single dose 24 h after CDE-diet feeding, sacrificed at 60 h, vs vehicle): protected against acute pancreatitis

rIL-22: recombinant IL-22 (Miltenyi Biotech), cytokine of the IL-10 family
pSTAT3 induction in pancreatic acinar cells (pancreatic acinar cells): induced by rIL-22 in pancreatic acinar cells in a time and dose dependent manner | Pancreatic injury (H&E) [2]: decrease | Serum lipase levels [2]: decrease | IL-22RA1 mRNA expression in pancreas [3]: no significant induction | RegIIIβ (PAP1) mRNA expression in pancreas [3]: stimulated the expression | RegIIIγ (PAP3) mRNA expression in pancreas [3]: stimulated the expression | SAA3 mRNA expression in pancreas [3]: no significant induction | β-defensin2 mRNA expression in pancreas [3]: no significant induction | STAT3 activation (p-STAT3) in the pancreas (STAT3): Significant STAT3 activation | Blinded lung histology score ([1]; 200 ng/mouse 24 h after CDE feeding, 60 h, mean±SEM, P=0.028 vs control): 1.6±0.24 | Lung myeloperoxidase (MPO) levels [1, 5]: significantly reduced | Morphologic evidence of lung injury [1, 5]: significantly reduced | Pancreatitis severity, histologic examination and blinded scoring of pancreata ([1]; 200 ng/mouse 24 h after CDE feeding, 60 h, vs vehicle): less severe pancreatitis | Serum lipase levels ([1]; 200 ng/mouse i.p. 24 h after CDE feeding, harvest at 60 h, vs PBS): significantly lower | Pancreatic IL-22 level by ELISA after systemic administration ([1]; 60 h following CDE feeding): Effective reconstitution | Mortality ([1]; rIL-22 24 h after CDE feeding, followed to 72 h, vs PBS): lower mortality | Apoptosis in pancreas (TUNEL assay) ([1]; rIL-22 24 h after CDE feeding, pancreas at 60 h): significantly reduced apoptosis | Spontaneous apoptosis of acinar cells (cleaved caspase-3) [4]: delayed spontaneous apoptosis
